Laboratory results published in PubChem BioAssay AID1259411 (Chemical Carcinogenesis Research Information System (CCRIS), 2018).
Activity calls are given as the source filed them. The rule behind the calls is not given here.

System: rodent carcinogenicity bioassays, tumor incidence
Assay: CCRIS carcinogenicity studies
How it was run: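 Archive of carcinogenicity, mutagenicity, tumor promotion and tumor inhibition results drawn from journals, NCI reports and other sources, expert-reviewed; covers 1985-2011 and is no longer updated.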

In the case of `C1CO1`, the carcinogen call (Species: MOUSE, Strain/Sex: B6C3F1/FEMALE, Route: INHALATION, Dose: 0, 50, 100 PPM 6 HR/D 5 D/WK FOR 102 WK (STUDY DURATION: 105 WK), Dose: 0, 50, 100 PPM 6 HR/D 5 D/WK FOR 102 WK (STUDY DURATION: 105 WK), Tumor Site: Type of Lesion: LUNG: ALVEOLAR/BRONCHIOLAR ADENOMA, LUNG: ALVEOLAR/BRONCHIOLAR CARCINOMA, LUNG: ALVEOLAR/BRONCHIOLAR ADENOMA OR CARCINOM, Tumor Site: Type of Lesion: LUNG: ALVEOLAR/BRONCHIOLAR ADENOMA, LUNG: ALVEOLAR/BRONCHIOLAR CARCINOMA, LUNG: ALVEOLAR/BRONCHIOLAR ADENOMA OR CARCINOM) is reported as “active; positive”, the carcinogen call (Species: MOUSE, Strain/Sex: B6C3F1/MALE, Route: INHALATION, Dose: 0, 50, 100 PPM 6 HR/D 5 D/WK FOR 102 WK (STUDY DURATION: 105 WK), Dose: 0, 50, 100 PPM 6 HR/D 5 D/WK FOR 102 WK (STUDY DURATION: 105 WK), Tumor Site: Type of Lesion: LUNG: ALVEOLAR/BRONCHIOLAR CARCINOMA, LUNG: ALVEOLAR/BRONCHIOLAR ADENOMA OR CARCINOMA, HARDERIAN GLAND: PAPILLARY CYSTAD, Tumor Site: Type of Lesion: LUNG: ALVEOLAR/BRONCHIOLAR CARCINOMA, LUNG: ALVEOLAR/BRONCHIOLAR ADENOMA OR CARCINOMA, HARDERIAN GLAND: PAPILLARY CYSTAD) is reported as “active; positive” and the carcinogen call (Species: MOUSE, Strain/Sex: NMRI/FEMALE, Route: SUBCUTANEOUS, Dose: 0, 0.1, 0.3, 1 MG/MOUSE IN TRICAPRYLIN 1/WK FOR 95 WK (STUDY DURATION: 110 WK), Dose: 0, 0.1, 0.3, 1 MG/MOUSE IN TRICAPRYLIN 1/WK FOR 95 WK (STUDY DURATION: 110 WK), Tumor Site: Type of Lesion: INJECTION SITE: TUMOR) is reported as “active; positive”. The carcinogen call (Species: RAT, Strain/Sex: F344/FEMALE, Route: INHALATION, Dose: 0, 10, 33, 100 PPM 6 HR/D 5 D/WK FOR STUDY DURATION (STUDY DURATION: 2 YR), Dose: 0, 10, 33, 100 PPM 6 HR/D 5 D/WK FOR STUDY DURATION (STUDY DURATION: 2 YR), Tumor Site: Type of Lesion: BRAIN: ASTROCYTOMA, MIXED GLIOMA, OLIGODENDROGLIOMA, MALIGNANT RETICULOSIS) was “active; positive”, the carcinogen call (Species: RAT, Strain/Sex: F344/FEMALE, Route: INHALATION, Dose: 0, 10, 33, 100 PPM 6 HR/D 5 D/WK FOR UP TO 2 YR (STUDY DURATION: 24 MO), Dose: 0, 10, 33, 100 PPM 6 HR/D 5 D/WK FOR UP TO 2 YR (STUDY DURATION: 24 MO)) was “inactive; negative” and the carcinogen call (Species: RAT, Strain/Sex: F344/MALE, Route: INHALATION, Dose: 0, 10, 33, 100 PPM 6 HR/D 5 D/WK FOR STUDY DURATION (STUDY DURATION: 2 YR), Dose: 0, 10, 33, 100 PPM 6 HR/D 5 D/WK FOR STUDY DURATION (STUDY DURATION: 2 YR), Tumor Site: Type of Lesion: BRAIN: GRANULAR CELL TUMOR, ASTROCYTOMA, MIXED GLIOMA, OLIGODENDROGLIOMA, MALIGNANT RETICULOSIS) was “active; positive”. For the same molecule, the carcinogen call (Species: RAT, Strain/Sex: F344/MALE, Route: INHALATION, Dose: 0, 10, 33, 100 PPM 6 HR/D 5 D/WK FOR UP TO 2 YR (STUDY DURATION: 24 MO), Dose: 0, 10, 33, 100 PPM 6 HR/D 5 D/WK FOR UP TO 2 YR (STUDY DURATION: 24 MO), Tumor Site: Type of Lesion: BRAIN: GRANULAR CELL TUMOR OR GLIAL CELL TUMOR OR ASTROCYTOMA OR MALIGNANT RETICULOSIS) was “active; positive”, the carcinogen call (Species: RAT, Strain/Sex: F344/MALE, Route: INHALATION, Dose: 0, 50, 100 PPM 7 HR/D 5 D/WK FOR 24 MO (STUDY DURATION: LIFETIME), Dose: 0, 50, 100 PPM 7 HR/D 5 D/WK FOR 24 MO (STUDY DURATION: LIFETIME), Tumor Site: Type of Lesion: HEMATOPOIETIC SYSTEM: MONONUCLEAR CELL LEUKEMIA, PERITONEUM: MESOTHELIOMA, BRAIN: GLIOMA, Tumor Site: Type of Lesion: HEMATOPOIETIC SYSTEM: MONONUCLEAR CELL LEUKEMIA, PERITONEUM: MESOTHELIOMA, BRAIN: GLIOMA) was “active; positive” and the carcinogen call (Species: RAT, Strain/Sex: F344/MALE, Route: INHALATION, Dose: 0, 50, 100 PPM 7 HR/D 5 D/WK FOR 104 WK (STUDY DURATION: 2 YR), Dose: 0, 50, 100 PPM 7 HR/D 5 D/WK FOR 104 WK (STUDY DURATION: 2 YR), Tumor Site: Type of Lesion: BRAIN: GLIOMA (MIXED CELL), PERITONEUM: MESOTHELIOMA, PITUITARY GLAND: ADENOMA, SPLEEN: MONONUCLEAR CELL LEUKEMIA, Tumor Site: Type of Lesion: BRAIN: GLIOMA (MIXED CELL), PERITONEUM: MESOTHELIOMA, PITUITARY GLAND: ADENOMA, SPLEEN: MONONUCLEAR CELL LEUKEMIA) was “active; positive”. For the same molecule, the carcinogen call (Species: RAT, Strain/Sex: SPRAGUE-DAWLEY/FEMALE, Route: GAVAGE, Dose: 7.5, 30 MG/KG IN SALAD OIL 2/WK FOR UP TO 150 WK, Tumor Site: Type of Lesion: FORESTOMACH: SQUAMOUS CELL CARCINOMA) was “active; positive”.

In the case of `Cl`, the carcinogen call (Species: RAT, Strain/Sex: F344/MALE, Route: ORAL, Dose: 0, 0.25, 1, 4% IN DIET FOR 2 YR (STUDY DURATION: 2 YR), Dose: 0, 0.25, 1, 4% IN DIET FOR 2 YR (STUDY DURATION: 2 YR)) is reported as “inactive; negative”.

For `O=NN1CCCOC1`, the carcinogen call (Species: RAT, Strain/Sex: F344/FEMALE, Route: ORAL, Dose: 40 MG/L IN DRINKING WATER FOR 50 WK, Tumor Site: Type of Lesion: LIVER: HEPATOCELLULAR CARCINOMA, HEMANGIOENDOTHELIAL SARCOMA) was “active; positive”.

In the case of `CO[C@@H](Cc1ccc(OCCCOc2ccc(Oc3ccccc3)cc2)cc1)C(=O)O`, the carcinogen call (Species: Rat, Strain/Sex: F344/N / Female (60/Group), Route: Oral (gavage), Dose: 0, 0.1, 0.3, 1.0 mg/kg bw daily for 104 wk, study duration 104 wk, Dose: 0, 0.1, 0.3, 1.0 mg/kg bw daily for 104 wk, study duration 104 wk, Tumor Site: Type of Lesion: Bladder: carcinoma (0, 0, 2, 8), papilloma (0, 0, 0, 6)) is reported as “active; positive. study primarily directed to urine characteristics” and the carcinogen call (Species: Rat, Strain/Sex: F344/N / Male (60/Group), Route: Oral (gavage), Dose: 0, 0.3, 1.0, 3.0 mg/kg bw daily for 104 wk, study duration 104 wk, Dose: 0, 0.3, 1.0, 3.0 mg/kg bw daily for 104 wk, study duration 104 wk) is reported as “inactive; negative”.

`O=[N+]([O-])c1cc2c3c(cccc3c1)-c1ccccc1-2` was tested, and the carcinogen call (Species: MOUSE, Strain/Sex: B6C3F1/MALE, Route: INTRAPERITONEAL, Dose: 0, 400 NMOL IN 35 µL DMSO ON DAYS 1 (1/7 TOTAL DOSE), 8 (2/7 TOTAL DOSE), AND 15 (4/7 TOTAL DOSE) AFTER BIRTH (STUDY DUR) was “inactive; negative”.

With `O=C(O)CN(CCN(CC(=O)O)CC(=O)O)CC(=O)O` the carcinogen call (Species: MOUSE, Strain/Sex: B6C3F1/FEMALE, Route: ORAL, Dose: 0, 3750, 7500 PPM IN DIET, Dose: 0, 3750, 7500 PPM IN DIET) was “inactive; negative”, the carcinogen call (Species: MOUSE, Strain/Sex: B6C3F1/MALE, Route: ORAL, Dose: 0, 3750, 7500 PPM IN DIET, Dose: 0, 3750, 7500 PPM IN DIET) was “inactive; negative” and the carcinogen call (Species: RAT, Strain/Sex: F344/FEMALE, Route: ORAL, Dose: 0, 3750, 7500 PPM IN DIET, Dose: 0, 3750, 7500 PPM IN DIET) was “inactive; negative”. For the same molecule, the carcinogen call (Species: RAT, Strain/Sex: F344/MALE, Route: ORAL, Dose: 0, 3750, 7500 PPM IN DIET, Dose: 0, 3750, 7500 PPM IN DIET) was “inactive; negative”.

With `O=C1O[C@H]([C@H](O)CO)C(O)=C1O` the carcinogen call (Species: MOUSE, Strain/Sex: B6C3F1/FEMALE, Route: ORAL, Dose: 0, 2.5, 5% IN DRINKING WATER FOR 96 WK (STUDY DURATION: 110 WK), Dose: 0, 2.5, 5% IN DRINKING WATER FOR 96 WK (STUDY DURATION: 110 WK)) was “inactive; negative”, the carcinogen call (Species: MOUSE, Strain/Sex: B6C3F1/MALE, Route: ORAL, Dose: 0, 1.25, 2.5% IN DRINKING WATER FOR 96 WK (STUDY DURATION: 110 WK), Dose: 0, 1.25, 2.5% IN DRINKING WATER FOR 96 WK (STUDY DURATION: 110 WK)) was “inactive; negative” and the carcinogen call (Species: RAT, Strain/Sex: F344/FEMALE, Route: ORAL, Dose: 0, 1.25%, 2.5% IN TAP DRINKING WATER FOR 104 WK (STUDY DURATION: LIFESPAN), Dose: 0, 1.25%, 2.5% IN TAP DRINKING WATER FOR 104 WK (STUDY DURATION: LIFESPAN)) was “inactive; negative”. The carcinogen call (Species: RAT, Strain/Sex: F344/MALE, Route: ORAL, Dose: 0, 1.25%, 2.5% IN TAP DRINKING WATER FOR 104 WK (STUDY DURATION: LIFESPAN), Dose: 0, 1.25%, 2.5% IN TAP DRINKING WATER FOR 104 WK (STUDY DURATION: LIFESPAN)) was “inactive; negative”.

For `CC(=O)O[C@@H]1[C@@H](O)[C@H]2O[C@@H]3C=C(C)C(=O)[C@@H](O)[C@]3(CO)[C@]1(C)[C@]21CO1`, the carcinogen call (Species: MOUSE, Strain/Sex: BDF1/FEMALE, Route: GAVAGE, Dose: 0, 3.5 MG/KG 1/4 WK FOR 1 YR (STUDY DURATION: 2 YR)) was “inactive; negative” and the carcinogen call (Species: MOUSE, Strain/Sex: BDF1/FEMALE, Route: GAVAGE, Dose: 0, 3.5 MG/KG 1/8 WK FOR 1 YR (STUDY DURATION: 2 YR)) was “inactive; negative”.
